Results as given in patent US20230181746A1, “BENZOYLHYDRAZIDE-DERIVED HDAC DEGRADERS AS THERAPEUTICS FOR TREATING CANCER AND OTHER HUMAN DISEASES” (University of Florida Research Foundation, Inc., priority 2020, published 2023).

What was measured:
[1] = biological target: T1, HDAC3 (in complex with the deacetylase activation domain of the human NCOR2 (amino acids 395-498)) (Homo sapiens, UniProt O15379); assay: In vitro HDAC activity assay (HDAC-Glo I/II), HDAC3; assay type: biochemical; conditions: HDAC-Glo I/II; average of three independent assays ± standard deviation
T1 construct: purchased BPS Bioscience 50003
Method: (§1) Purified HDAC1, HDAC2, and HDAC3 (in complex with the deacetylase activation domain of the human NCOR2 (amino acids 395-498)) were obtained from Enzo Life Sciences (HDAC1, catalog # BML-SE456-0050) and BPS Bioscience (HDAC2, catalog #50002 and HDAC3, catalog #50003), respectively. The enzyme activities were tested using the HDAC-Glo I/II reagents (Promega) according to a protocol provided by the manufacturer.

HDAC2 = HDAC2 (Homo sapiens, UniProt Q92769); assay: In vitro HDAC activity assay (HDAC-Glo I/II), HDAC2; assay type: biochemical; set-up: purchased BPS Bioscience 50002; conditions: average of three independent assays ± standard deviation
Method: as §1

HDAC1 = HDAC1 (Homo sapiens, UniProt Q13547); assay: In vitro HDAC activity assay (HDAC-Glo I/II), HDAC1; assay type: biochemical; set-up: purchased Enzo Life Sciences BML-SE456-0050; conditions: average of three independent assays ± standard deviation
Method: as §1

HDAC3 = HDAC3 (Homo sapiens, UniProt O15379); assay: HDAC3 degradation in breast cancer cell lines, Western blot; assay type: cell-based; set-up: endogenous in cells; host or cells: MDA-MB-468, T47D, MCF7; conditions: for DC50: T47D cells, read-out: DC50, HDAC3 degradation potency
Text: Data are presented as representative figures of two independent experiments.
Cells were lysed for WB with antibodies against the indicated proteins. Antibodies against acetylated histones at specific sites (H3K27 and H4K5) and acetyl-lysine were used to assess levels of histone acetylation.
Cells were lysed for WB. […] The indicated BC cell lines were exposed to DMSO, XZ9002, or XZ9002-NC at the indicated concentrations. Colonies were fixed and stained.
Cell lines were obtained from ATCC and subsequently authenticated. Cells were cultured with DMEM supplemented with 10% bovine calf serum, penicillin to 10 units/mL, and streptomycin to 10 μg/mL. For viability assays, 5,000 cells/well were seeded in 96-well plates. […] For colony formation assay, cells (˜1,000 cells/well) were seeded in a 24-well plate in quadruplicates. […] Medium was replaced with freshly prepared medium containing DMSO, XZ9002 or XZ9002-NC every five days until visible colonies appeared, typically in 15 to 20 days after initial cell seeding. Cells were fixed with 4% paraformaldehyde for 15 min and stained with 2% methylene blue in 20% ethanol for 30 min to 1 h. The cells were washed twice with distilled water and dried in air. For western blotting, cell cultures were exposed to compounds as indicated in relevant figures. Medium was removed from culture plate, and 1 x passive lysis buffer was then added, the plates were frozen at −80° C. overnight and thawed at room temperature. The total cell lysates were mixed with a one fifth volume of 6x SDS sample buffer, heated at 95° C. for 5 min and cooled on ice. The lysates were cleared by centrifugation and then subjected to SDS-PAGE and western blotting essentially as described.

Sequence of HDAC1 (Q13547 whole entry): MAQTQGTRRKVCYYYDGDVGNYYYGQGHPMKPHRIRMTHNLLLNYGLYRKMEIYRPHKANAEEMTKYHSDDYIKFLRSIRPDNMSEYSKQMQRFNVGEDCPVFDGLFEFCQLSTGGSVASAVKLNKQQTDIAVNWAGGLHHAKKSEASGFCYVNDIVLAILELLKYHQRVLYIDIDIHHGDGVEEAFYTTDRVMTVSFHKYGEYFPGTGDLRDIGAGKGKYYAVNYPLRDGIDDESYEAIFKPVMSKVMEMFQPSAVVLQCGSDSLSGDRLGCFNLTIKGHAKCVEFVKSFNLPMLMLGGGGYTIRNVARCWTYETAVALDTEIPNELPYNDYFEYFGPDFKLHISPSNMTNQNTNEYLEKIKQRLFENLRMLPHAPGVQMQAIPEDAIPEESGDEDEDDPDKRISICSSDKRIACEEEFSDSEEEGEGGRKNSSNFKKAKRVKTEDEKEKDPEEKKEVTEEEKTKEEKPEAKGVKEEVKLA
Sequence of HDAC2 (Q92769 whole entry): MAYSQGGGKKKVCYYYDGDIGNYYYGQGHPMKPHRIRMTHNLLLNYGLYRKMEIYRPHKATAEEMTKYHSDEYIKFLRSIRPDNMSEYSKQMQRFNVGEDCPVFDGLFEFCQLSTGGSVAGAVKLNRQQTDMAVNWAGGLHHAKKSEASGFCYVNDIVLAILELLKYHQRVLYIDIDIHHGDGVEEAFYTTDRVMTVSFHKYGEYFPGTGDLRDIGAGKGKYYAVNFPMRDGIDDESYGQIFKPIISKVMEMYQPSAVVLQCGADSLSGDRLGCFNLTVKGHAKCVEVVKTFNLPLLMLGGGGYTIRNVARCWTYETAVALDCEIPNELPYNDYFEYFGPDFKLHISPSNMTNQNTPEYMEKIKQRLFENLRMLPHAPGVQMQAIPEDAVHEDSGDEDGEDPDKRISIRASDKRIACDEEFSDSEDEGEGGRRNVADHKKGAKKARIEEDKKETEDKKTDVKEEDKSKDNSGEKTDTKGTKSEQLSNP
Sequence of HDAC3 (O15379 whole entry): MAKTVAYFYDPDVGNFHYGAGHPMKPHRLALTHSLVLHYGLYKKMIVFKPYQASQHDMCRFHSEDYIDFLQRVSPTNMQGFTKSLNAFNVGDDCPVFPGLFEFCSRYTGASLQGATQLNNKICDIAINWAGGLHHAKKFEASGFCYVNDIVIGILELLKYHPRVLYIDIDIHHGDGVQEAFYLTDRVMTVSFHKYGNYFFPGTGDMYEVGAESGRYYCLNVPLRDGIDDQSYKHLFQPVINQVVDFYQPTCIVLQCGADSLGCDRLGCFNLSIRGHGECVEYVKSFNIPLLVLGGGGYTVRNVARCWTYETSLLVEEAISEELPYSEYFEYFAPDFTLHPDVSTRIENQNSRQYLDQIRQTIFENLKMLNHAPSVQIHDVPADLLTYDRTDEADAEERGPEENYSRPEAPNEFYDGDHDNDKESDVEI
Sequence of HDAC3 (Q9Y618 395-498 partner limits assumed): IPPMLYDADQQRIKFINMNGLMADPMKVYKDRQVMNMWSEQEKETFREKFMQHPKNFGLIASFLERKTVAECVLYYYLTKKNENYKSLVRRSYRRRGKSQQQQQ
T1 sequence (O15379 whole entry, the tested form may be a part): as the sequence (O15379 whole entry) above
T1 sequence (Q9Y618 395-498 partner limits assumed): as the sequence (Q9Y618 395-498 partner limits assumed) above

IC50 [1] [nM] | IC50 (HDAC2) [nM] | IC50 (HDAC1) [nM] | DC50 (HDAC3) [nM] | Structure (SMILES) | further results
43 ± 18 | 410 ± 14 | 82 ± 25 |  | CCCNNC(=O)c1ccc(-c2ccc(NC(=O)COCCOCCNc3cccc4c3C(=O)N(C3CCC(=O)NC3=O)C4=O)cc2)cc1 (stereo not drawn) [Compound 7a] | 
38 ± 23 | 400 ± 30 | 90 ± 14 |  | CCCNNC(=O)c1ccc(-c2ccc(NC(=O)COCCOCCOCCNc3cccc4c3C(=O)N(C3CCC(=O)NC3=O)C4=O)cc2)cc1 (stereo not drawn) [Compound 7b, 2-(2-(2-(2-((2-(2,6-dioxopiperidin-3-yl)-1,3-dioxoisoindolin-4-yl)amino)ethoxy)ethoxy)ethoxy)-N-(4′-(20propylhydrazine-1-carbonyl)[1,1′-biphenyl]-4-yl)acetamide] | 
72 ± 15 | 450 ± 70 | 125 ± 35 |  | CCCNNC(=O)c1ccc(-c2ccc(NC(=O)COCCOCCOCCOCCNc3cccc4c3C(=O)N(C3CCC(=O)NC3=O)C4=O)cc2)cc1 (stereo not drawn) [Compound 7c, 14-((2-(2,6-dioxopiperidin-3-yl)-1,3-dioxoisoindolin-4-yl)amino)-N-(4′-(2-propylhydrazine-1-carbonyl)-[1,1′-biphenyl]-4-yl)-3,6,9,12-tetraoxatetradecanamide] | concentration at which HDAC3 is degraded (HDAC3; PROTACs derived from CRBN, breast cancer cell lines): 1.0 µM
140 ± 40 | 1400 ± 140 | 300 ± 70 |  | CCCNNC(=O)c1ccc(-c2ccc(NC(=O)CCC(=O)N[C@H](C(=O)N3C[C@H](O)C[C@H]3C(=O)N[C@@H](C)c3ccc(-c4scnc4C)cc3)C(C)(C)C)cc2)cc1 [Compound 8a, N^1—((S)-1-((2S,4R)-4-hydroxy-2-(((S)-1-(4-(4-methylthiazol-5-yl)phenyl)ethyl)carbamoyl)pyrrolidine-1-yl)-3,3-dimethyl-1-oxobutan-2-yl)-N^4-(4′-(2-propylhydrazine-1-carbonyl)-[1,1′-biphenyl]-4-yl)succinimide] | 
550 ± 70 | 1420 ± 250 | 1500 ± 140 |  | CCCNNC(=O)c1ccc(-c2ccc(NC(=O)CCCCCCCCC(=O)N[C@H](C(=O)N3C[C@H](O)C[C@H]3C(=O)N[C@@H](C)c3ccc(-c4scnc4C)cc3)C(C)(C)C)cc2)cc1 [Compound 8d, N^1—((S)-1-((2S,4R)-4-Hydroxy-2-(((S)-1-(4-(4-methylthiazol-5-yl)phenyl)ethyl)carbamoyl)pyrrolidin-1-yl)-3,3-dimethyl-1-oxobutan-2-yl)-N^10-(4′-(2-propylhydrazine-1-carbonyl)-[1,1′-biphenyl]-4-yl)decanediamide] | 
 |  |  | < 1000 | CCCNNC(=O)c1ccc(N2CCN(C(=O)CCCCC(=O)N[C@H](C(=O)N3C[C@H](O)C[C@H]3C(=O)N[C@@H](C)c3ccc(-c4scnc4C)cc3)C(C)(C)C)CC2)cc1 [Compound 27a, (2S,4R)-1-((S)-3,3-dimethyl-2-(6-oxo-6-(4-(4-(2-propylhydrazine-1-carbonyl)phenyl)piperazin-1-yl)hexanamido)butanoyl)-4-hydroxy-N—((S)-1-(4-(4-methylthiazol-5-yl)phenyl)ethyl)pyrrolidine-2-carboxamide] | 
 |  |  | < 100 | CCCNNC(=O)c1ccc(N2CCN(C(=O)CCCCCCC(=O)N[C@H](C(=O)N3C[C@H](O)C[C@H]3C(=O)N[C@@H](C)c3ccc(-c4scnc4C)cc3)C(C)(C)C)CC2)cc1 [Compound 27b, (2S,4R)-1-((S)-3,3-dimethyl-2-(8-oxo-8-(4-(4-(2-propylhydrazine-1-carbonyl)phenyl)piperazin-1-yl)octanamido)butanoyl)-4-hydroxy-N—((S)-1-(4-(4-methylthiazol-5-yl)phenyl)ethyl)pyrrolidine-2-carboxamide] | 
 |  |  | < 100 | CCCNNC(=O)c1ccc(N2CCN(C(=O)CCCCCCCCC(=O)N[C@H](C(=O)N3C[C@H](O)C[C@H]3C(=O)N[C@@H](C)c3ccc(-c4scnc4C)cc3)C(C)(C)C)CC2)cc1 [Compound 27c, (2S,4R)-1-((S)-3,3-dimethyl-2-(10-oxo-10-(4-(4-(2-propylhydrazine-1-carbonyl)phenyl)piperazin-1-yl)decanamido)butanoyl)-4-hydroxy-N—((S)-1-(4-(4-methylthiazol-5-yl)phenyl)ethyl)pyrrolidine-2-carboxamide] | 
 |  |  | < 100 | CCCNNC(=O)c1ccc(N2CCN(CCCCCC(=O)N[C@H](C(=O)N3C[C@H](O)C[C@H]3C(=O)N[C@@H](C)c3ccc(-c4scnc4C)cc3)C(C)(C)C)CC2)cc1 [Compound 28a, (2S,4R)-1-((S)-3,3-dimethyl-2-(6-(4-(4-(2-propylhydrazine-1-carbonyl)phenyl)piperazin-1-yl)hexanamido)butanoyl)-4-hydroxy-N—((S)-1-(4-(4-methylthiazol-5-yl)phenyl)ethyl)pyrrolidine-2-carboxamide] | 
 |  |  | < 100 | CCCNNC(=O)c1ccc(N2CCN(CCCCCCC(=O)N[C@H](C(=O)N3C[C@H](O)C[C@H]3C(=O)N[C@@H](C)c3ccc(-c4scnc4C)cc3)C(C)(C)C)CC2)cc1 [Compound 28b, (2S,4R)-1-((S)-3,3-dimethyl-2-(7-(4-(4-(2-propylhydrazine-1-carbonyl)phenyl)piperazin-1-yl)heptanamido)butanoyl)-4-hydroxy-N—((S)-1-(4-(4-methylthiazol-5-yl)phenyl)ethyl)pyrrolidine-2-carboxamide] | 
 |  |  | < 100 | CCCNNC(=O)c1ccc(N2CCN(CCCCCCCCC(=O)N[C@H](C(=O)N3C[C@H](O)C[C@H]3C(=O)N[C@@H](C)c3ccc(-c4scnc4C)cc3)C(C)(C)C)CC2)cc1 [Compound 28d, (2S,4R)-1-((S)-3,3-dimethyl-2-(9-(4-(4-(2-propylhydrazine-1-carbonyl)phenyl)piperazin-1-yl)nonanamido)butanoyl)-4-hydroxy-N—((S)-1-(4-(4-methylthiazol-5-yl)phenyl)ethyl)pyrrolidine-2-carboxamide] | 
 |  |  | < 1000 | CCCNNC(=O)c1ccc(N2CCN(CCCCCCCCCC(=O)N[C@H](C(=O)N3C[C@H](O)C[C@H]3C(=O)N[C@@H](C)c3ccc(-c4scnc4C)cc3)C(C)(C)C)CC2)cc1 [Compound 28e, (2S,4R)-1-((S)-3,3-dimethyl-2-(10-(4-(4-(2-propylhydrazine-1-carbonyl)phenyl)piperazin-1-yl)decanamido)butanoyl)-4-hydroxy-N—((S)-1-(4-(4-methylthiazol-5-yl)phenyl)ethyl)pyrrolidine-2-carboxamide] | 
 |  |  |  | CCCNNC(=O)c1ccc(-c2ccc(NC(=O)CCCCCCC(=O)N[C@H](C(=O)N3C[C@@H](O)C[C@@H]3C(=O)N[C@@H](C)c3ccc(-c4scnc4C)cc3)C(C)(C)C)cc2)cc1 [XZ9002-NC, N^1—((S)-1-((2R,4S)-4-Hydroxy-2-(((S)-1-(4-(4-methylthiazol-5-yl)phenyl)ethyl)carbamoyl)pyrrolidin-1-yl)-3,3-dimethyl-1-oxobutan-2-yl)-N^5-(4′-(2-propylhydrazine-1-carbonyl)-[1,1′-biphenyl]-4-yl)octanediamide] | HDAC3 degradation (in words) (HDAC3; MDA-MB-468 cells (FIG. 3B)): did not induce HDAC3 degradation
